We go through one molecule from paper PMC4580987, “Catalytic site inhibition of insulin-degrading enzyme by a small molecule induces glucose intolerance in mice” (Nature Communications, 2015).

One assay has as its target T1, Recombinant human MMP-1 (Homo sapiens, UniProt P03956).
T1 construct: host or cells: E. coli
T1 sequence (P03956 100-469): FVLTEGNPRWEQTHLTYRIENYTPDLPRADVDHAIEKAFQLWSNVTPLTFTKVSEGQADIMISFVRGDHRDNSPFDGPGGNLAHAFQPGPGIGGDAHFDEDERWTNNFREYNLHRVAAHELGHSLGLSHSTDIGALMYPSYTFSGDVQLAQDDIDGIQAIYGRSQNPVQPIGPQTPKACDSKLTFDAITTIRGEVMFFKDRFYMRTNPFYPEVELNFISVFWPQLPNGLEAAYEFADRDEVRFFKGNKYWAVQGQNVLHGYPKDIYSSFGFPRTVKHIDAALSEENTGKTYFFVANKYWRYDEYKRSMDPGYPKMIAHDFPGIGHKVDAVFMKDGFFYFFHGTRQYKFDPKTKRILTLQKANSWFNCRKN
The assay can be described thus: Matrix metalloprotease 1 inhibition (CEREP). Format: biochemical. The conditions noted are these: means of two experiments minimum, s.d.±10%; read-out: Selectivity IC50 hMMP-1. Here is the method:
(§1) Briefly, human NEP (R&D Systems; 200 ng ml^−1) was incubated 10 min at room temperature with compound in Hepes 50 mM, NaCl 100 mM, pH 7.4 and the enzymatic reaction started by adding the substrate (final concentration 200 μM). […] Briefly, human ACE (R&D Systems) was incubated 10 min at room temperature with compound in Tris 50 mM 1% NaCl pH 7.4 and the enzymatic reaction is started by adding the substrate (final concentration 300 μM). […] In vitro activity was assayed at CEREP.SA as follows.

For a further assay, the target named is T2, human ACE (Homo sapiens, UniProt P12821).
T2 construct: purchased R&D Systems
T2 sequence (P12821 30-1306): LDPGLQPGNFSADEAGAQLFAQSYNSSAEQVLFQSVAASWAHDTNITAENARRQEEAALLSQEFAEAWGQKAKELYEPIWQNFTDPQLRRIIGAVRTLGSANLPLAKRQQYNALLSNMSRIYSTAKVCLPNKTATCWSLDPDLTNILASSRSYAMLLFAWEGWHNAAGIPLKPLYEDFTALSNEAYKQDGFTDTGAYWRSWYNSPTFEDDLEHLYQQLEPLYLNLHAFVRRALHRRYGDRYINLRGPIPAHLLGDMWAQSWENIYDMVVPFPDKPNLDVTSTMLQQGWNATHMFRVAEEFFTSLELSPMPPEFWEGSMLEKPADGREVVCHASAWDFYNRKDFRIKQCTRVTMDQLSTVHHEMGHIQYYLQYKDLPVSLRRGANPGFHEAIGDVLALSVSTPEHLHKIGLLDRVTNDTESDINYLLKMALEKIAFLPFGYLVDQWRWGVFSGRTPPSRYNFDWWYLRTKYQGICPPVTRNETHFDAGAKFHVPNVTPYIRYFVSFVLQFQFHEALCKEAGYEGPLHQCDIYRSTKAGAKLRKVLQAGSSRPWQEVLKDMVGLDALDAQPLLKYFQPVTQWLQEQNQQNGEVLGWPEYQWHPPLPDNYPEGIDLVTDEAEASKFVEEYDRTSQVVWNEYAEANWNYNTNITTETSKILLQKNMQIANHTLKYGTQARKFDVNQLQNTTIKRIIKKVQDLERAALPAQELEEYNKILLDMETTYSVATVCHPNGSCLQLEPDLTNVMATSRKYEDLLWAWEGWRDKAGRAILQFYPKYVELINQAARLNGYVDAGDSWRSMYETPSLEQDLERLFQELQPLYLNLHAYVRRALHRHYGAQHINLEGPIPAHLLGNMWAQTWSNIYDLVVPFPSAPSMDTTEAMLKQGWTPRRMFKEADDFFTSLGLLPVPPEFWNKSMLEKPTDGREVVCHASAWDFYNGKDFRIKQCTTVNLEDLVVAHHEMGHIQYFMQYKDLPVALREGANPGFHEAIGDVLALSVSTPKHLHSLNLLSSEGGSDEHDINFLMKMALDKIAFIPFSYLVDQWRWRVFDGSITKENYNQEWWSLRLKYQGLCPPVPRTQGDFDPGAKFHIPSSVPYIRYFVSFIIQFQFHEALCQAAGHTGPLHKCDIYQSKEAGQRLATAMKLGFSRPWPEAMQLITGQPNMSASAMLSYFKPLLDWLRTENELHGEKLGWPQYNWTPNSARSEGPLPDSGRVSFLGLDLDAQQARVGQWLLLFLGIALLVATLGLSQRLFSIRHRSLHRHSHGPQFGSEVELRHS
The experiment in a line: ACE selectivity assay. Particulars: >10 μM stands for <10% at 10 μM; read-out: Selectivity IC50 hACE. Format: biochemical. Here is the method:
as §1

Another assay has as its target T3, recombinant human ECE-1 (Homo sapiens, UniProt P42892).
T3 construct: host or cells: NSO cells
T3 sequence (P42892 1-770): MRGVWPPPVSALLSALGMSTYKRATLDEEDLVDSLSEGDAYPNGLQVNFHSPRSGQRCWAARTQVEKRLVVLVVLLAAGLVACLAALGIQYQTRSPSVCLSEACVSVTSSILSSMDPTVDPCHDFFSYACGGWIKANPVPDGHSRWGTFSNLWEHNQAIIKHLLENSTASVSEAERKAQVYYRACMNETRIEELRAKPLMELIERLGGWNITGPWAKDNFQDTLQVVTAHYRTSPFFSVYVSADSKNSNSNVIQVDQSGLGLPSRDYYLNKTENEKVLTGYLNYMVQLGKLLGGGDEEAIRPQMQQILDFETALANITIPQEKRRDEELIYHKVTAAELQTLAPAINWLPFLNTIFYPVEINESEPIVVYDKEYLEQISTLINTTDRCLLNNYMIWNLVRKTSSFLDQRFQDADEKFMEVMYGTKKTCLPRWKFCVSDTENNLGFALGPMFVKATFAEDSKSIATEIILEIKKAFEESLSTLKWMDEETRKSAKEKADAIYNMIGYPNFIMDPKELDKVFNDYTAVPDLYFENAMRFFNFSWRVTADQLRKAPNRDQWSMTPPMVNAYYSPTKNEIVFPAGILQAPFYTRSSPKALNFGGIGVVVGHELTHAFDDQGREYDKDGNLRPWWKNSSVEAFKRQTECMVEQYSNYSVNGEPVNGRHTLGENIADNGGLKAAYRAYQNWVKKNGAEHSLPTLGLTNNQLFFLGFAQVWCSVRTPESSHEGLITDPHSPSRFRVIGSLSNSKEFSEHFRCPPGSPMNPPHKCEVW
The experiment in a line: Endothelin-converting enzyme inhibition (CEREP). Format: biochemical. Particulars: means of two experiments minimum, s.d.±10%; read-out: Selectivity IC50 hECE.

The test system of the next assay is NOD mice. The experiment in a line: Oral glucose tolerance test (OGTT) in NOD mice. Format: in vivo, mouse. Particulars: 50 mg kg^−1 ip. The procedure: OGTT and IPGTT were performed on 11 to 16 week-old male or female mice (n=4–7 per experimental group). C57BL/6J mice were purchased from Charles River Laboratories (France), Stock no. 000664. C57BL/6J Ide−/− mice were obtained from Guenette[20] and bred in the animal facility of INSERM U1151. WT C57BL/6J mice of the same genetic background were bred in the same animal facility in parallel. NOD Ide−/− mice were generated by backcrossing C57BL/6J Ide−/− mice with NOD wt mice bred in the animal facility of INSERM U1151 and maintained in this facility together with WT NOD mice. Normoglycemic WT and Ide−/− female NOD mice aged 14 weeks were used for OGTTs. Following a 6 h fasting period, a small tail cut was made, basal blood glucose was determined. […] Fifteen minutes later, blood glucose concentrations were measured before and after (up to 120 min, as shown) oral (2 g kg^−1 or 3 g kg^−1, as shown) or intraperitoneal (1.5 g kg^−1) glucose administration. […] Blood glucose levels were determined using an Accu-Check glucometer (Roche Diagnostics). Areas under the curves (AUC) for OGTT and IPGTT were calculated to evaluate glucose tolerance. Plasma insulin concentrations were measured by ELISA (cat. no. 10-1247-01,Mercodia) in blood samples collected 15 min before and 15 and 90 min relative to oral glucose injection. […]

Take `O=C(C[C@@H](Cc1ccc2ccccc2c1)n1cc(CNC(=O)c2ccc(F)cc2)nn1)NO` [Compound 1]: the IC50 at Recombinant human MMP-1 was 10 µM; on human ACE, over 10 µM; on recombinant human ECE-1, 6.5 µM. Further, in the assay on NOD mice (14 week-old female WT NOD mice, 3 g kg^−1 glucose), the “glucose tolerance in OGTT, WT NOD” value is recorded as “strong impairment of glucose tolerance”. Further, the “insulinaemia in OGTT, WT NOD” value in the assay with NOD mice (WT NOD mice) is recorded as “hyperinsulinemia”.
